According to US20130041005A1, “PHARMACEUTICAL COMPOSITIONS COMPRISING NEUROPILIN INHIBITORS, AND THEIR USE FOR THE PREVENTION AND/OR TREATMENT OF ANGIOGENIC DISORDERS AND CANCERS” (TRAGEX PHARMA, priority 2011, published 2013):

Legend:
Format in all cases: cell-based
MDA-MB-436 = experiment: WST-1 proliferation assay, MDA-MB-436; conditions: Homo sapiens; Breast MDA-MB-436, 72 h; read-out: Anti-proliferative activity IC50 (μM) ± SD
Source text: (§1) Several cancer cell lines were used: breast cancer cells (MDA-MB-231 (ATTCC® Number HTB-26™), MDA-MB-436 (ATTCC® Number HTB-130™), MDA-MB-438, BT-474 (ATTCC® Number HTB-20™)); cervical cancer cells (HeLa (ATTCC® Number CCL-2™)); colon cancer cells (HCT-116 (ATTCC® Number CCL-247™) and HT-29 (ATTCC® Number HTB-38™)); osteosarcoma cells (U2OS (ATTCC® Number HTB-96™)); pancreas cancer cells (MIA PaCa-2 (ATTCC® Number CRL-1420™) and Panc-10.5 (ATTCC® Number CRL-2547™)); prostate cancer cells (PC-3 (ATTCC® Number CRL-1435™) and LNCaP (ATTCC® Number CRL-1740™)); brain cancer cells (U87 glioblastoma (ATTCC® Number HTB-14™) and SH-SYSY neuroblastoma (ATTCC® Number CRL-2266™)). […]
(§2) After observation of cells under the microscope, old media were removed and the adherent cells washed gently twice with PBS (Phosphate Buffer Saline, —Ca^2+, —Mg^2+, Lonza cat no: 17-512F/12). […] 50 μl of this solution were transferred in 20 μl of isotonic solution and the cells were counted by count cellular (Beckman Coulter). […]
(§3) The cell proliferation WST-1 assay is a colorimetric assay for the quantification of cell proliferation and viability, based on the enzymatic cleavage of the tetrazolium salt WST-1 added to the culture medium, to a water soluble colored formazan dye, detected by absorbance at 450 nm, by mitochondrial succinate-tetrazolium reductase in viable cells. […]

MDA-MB-438 = experiment: WST-1 proliferation assay, MDA-MB-438; conditions: Homo sapiens; for IC50: Breast MDA-MB-438, 72 h, read-out: Anti-proliferative activity IC50 (μM) ± SD; for inhibition at 0.1 µM: MDA-MB-438, 0.1 μM; for inhibition at 0.5 µM: MDA-MB-438, 0.5 μM; for inhibition at 1 µM: MDA-MB-438, 1 μM
Source text: (§4) Several cancer cell lines were used: breast cancer cells (MDA-MB-231 (ATTCC® Number HTB-26™), MDA-MB-436 (ATTCC® Number HTB-130™), MDA-MB-438, BT-474 (ATTCC® Number HTB-20™)); cervical cancer cells (HeLa (ATTCC® Number CCL-2™)); colon cancer cells (HCT-116 (ATTCC® Number CCL-247™) and HT-29 (ATTCC® Number HTB-38™)); osteosarcoma cells (U2OS (ATTCC® Number HTB-96™)); pancreas cancer cells (MIA PaCa-2 (ATTCC® Number CRL-1420™) and Panc-10.5 (ATTCC® Number CRL-2547™)); prostate cancer cells (PC-3 (ATTCC® Number CRL-1435™) and LNCaP (ATTCC® Number CRL-1740™)); brain cancer cells (U87 glioblastoma (ATTCC® Number HTB-14™) and SH-SYSY neuroblastoma (ATTCC® Number CRL-2266™)).
(§5) All the cancer cell lines were maintained in cultured in DMEM GlutaMAX™ (GIBCO Invitrogen, France, cat no 31966047) enhanced with 10% foetal bovine serum (GIBCO Invitrogen, France, cat no 10270-106) and 1% penicillin G/streptomycin (GIBCO Invitrogen, France, cat no 15140-122). Only Panc-10.5 cells were cultivated in RPMI 1640 medium (Gibco) supplemented with 2 mM L-glutamine, 1.5 g/L sodium bicarbonate, 4.5 g/L glucose, 10 mM HEPES, 1 mM sodium pyruvate, 10 Units/ml human insulin, […] (SVF): 15% (75 ml in 500 ml of medium).
(§6) Cells were grown as subconfluent monolayer and cultured in 75 cm^2 flasks at 37° C., 5% CO2 in a humidified atmosphere, and medium was changed every two days. Only cells from passages 2-6 were used for the experiments.
(§7) After observation of cells under the microscope, old media were removed and the adherent cells washed gently twice with PBS (Phosphate Buffer Saline, —Ca^2+, —Mg^2+, Lonza cat no: 17-512F/12). All cells were detached with 3 ml of trypsin/EDTA (chelator of calcium and magnesium ions) (Lonza), incubated for 5 min at 37° C., and examined using a microscope to ensure that the cells were detached and floating. Then, 3 ml TNS (Trypsin Neutralizing Solution, Lonza, France, cat no CC-5002) or of culture medium were added to inactivate the trypsin, and the cell suspension was transferred in a falcon and centrifuged for 7 min at 1400 rpm. The supernatant was removed and the cell pellet resuspended in […] of culture medium. 50 μl of this solution were transferred in 20 μl of isotonic solution and the cells were counted by count cellular (Beckman Coulter). At day 0, 200 μl of cellular suspension (3.10^3 cells/well for the HUVEC cells, breast cancer cells (MDA-MB-231 1.10^4 cells/well, MDA-MB-436 1.10^4 cells/well, MDA-MB-438 2.10^4 cells/well, BT-474 2.5.10^4 cells/well); cervical cancer cells (HeLa 5.000 cells/well); colon cancer cells (HCT-116 5.10^3 cells/well, HCT-29 1.1.10^4 cells/well); osteosarcoma cells (U2OS 8.10^3 cells/well); pancreas cancer cells (MIA PaCa-2 5.10^3 cells/well, Panc-10.5 1.5.10^4 cells/well); prostate cancer cells (PC-3 4.10^3 cells/well, LNCaP 2.10^4 cells/well); brain cancer cells (U87 5.10^3 cells/well, SH-SYSY 8.10^4 cells/well)) were then plated on 96 well plates and incubated at 37° C. in a humidified atmosphere of 5% CO2 for 24 h.
(§8) At day 1, the compounds 1 or 2 of the invention were added at increasing concentrations (0.1-10 μM) in the wells and plates were incubated at 37° C. in a humidified atmosphere of 5% CO2 for 72 h.
(§9) The cell proliferation WST-1 assay is a colorimetric assay for the quantification of cell proliferation and viability, based on the enzymatic cleavage of the tetrazolium salt WST-1 added to the culture medium, to a water soluble colored formazan dye, detected by absorbance at 450 nm, by mitochondrial succinate-tetrazolium reductase in viable cells. An augmentation in enzyme activity will then lead to an increase in the amount of formazan dye formed, which directly correlates to the number of metabolically active cells in the culture.
(§10) After an incubation period of 72 h, at day 4, were prepared the 19 ml medium with reagent WST-1 1 ml ([…]). The medium was removed from the 96 microplate and 200 μl of solution WST-1/medium were added for each well. […]

HeLa = experiment: WST-1 proliferation assay, HeLa; conditions: Homo sapiens; for IC50: Cervical HeLa, 72 h, read-out: Anti-proliferative activity IC50 (μM) ± SD; for inhibition at 0.1 µM / inhibition at 0.5 µM / inhibition at 1 µM: HeLa
Source text: as §4, §5, §6, §7, §8, §9, §10

LNCaP = experiment: WST-1 proliferation assay, LNCaP; conditions: Homo sapiens; Prostate LNCaP, 72 h; read-out: Anti-proliferative activity IC50 (μM) ± SD
Source text: as §1, §2, §3

KMS-II = experiment: WST-1 proliferation assay, KMS-II; conditions: Homo sapiens; Myeloma KMS-II; read-out: Anti-proliferative activity IC50 (μM) ± SD
Procedure: as §5
Cells were grown as subconfluent monolayer and cultured in 75 cm^2 flasks at 37° C., 5% CO2 in a humidified atmosphere, and medium was changed every two days. […]
as §3
After an incubation period of 72 h, at day 4, were prepared the 19 ml medium with reagent WST-1 1 ml ([…]). […] The cells were incubated at 37° C. in a humidified atmosphere of 5% CO2 for 1 h 30 and the absorbance at 450-655 nm was measured by Microplate Manager 5.2 (Bio-Rad).

HUVEC = experiment: Tube maintenance assay; conditions: VEGF-A165-treated HUVEC in collagen, 24 h treatment (FIG. 3C)
Procedure: A 96-well plate was coated with 70 μl of collagen/media solution (NaOH 0.1N, 48 μL 10× Na2HCO3 and 0.5 mL EBM2) and allowed to solidify at 37° C. for 3 min. HUVEC were seeded at a density of 8×10^5 cells for well in 100 μl complete culture medium. After confluent monolayer formation, a second collagen gel layer with EBM2 supplemented with 50 ng/ml of VEGF-A165 was added over cells and plates were incubated for 24 h at 37° C. and 5% CO2 to allow tube formation.

Panc-10.5 = experiment: WST-1 proliferation assay, Panc-10.5; conditions: Homo sapiens; PANC - 10.5, 0.05 μM

**Q.** Which results are given for `Cc1ccc(-c2nc3ccccc3[nH]2)cc1NC(=S)NC(=O)c1ccc2c(c1)OCCO2` [Compound 1, N-[5-(1H-benzimidazol-2-yl)-2-methylphenyl]-N′-(2,3-dihydro-1,4-benzodioxin-6-ylcarbonyl)thiourea]?
**A.** IC50 (MDA-MB-436): 1.5 ± 0.02 µM; IC50 (MDA-MB-438): 1 µM; inhibition at 0.1 µM (MDA-MB-438): 4%; inhibition at 0.5 µM (MDA-MB-438): 40%; inhibition at 1 µM (MDA-MB-438): 55%; IC50 (HeLa): 0.4 ± 0.04 µM; inhibition at 0.1 µM (HeLa): 13%; inhibition at 0.5 µM (HeLa): 64%; inhibition at 1 µM (HeLa): 68%; IC50 (LNCaP): 1.4 ± 0.13 µM; IC50 (KMS-II): 2.3 ± 0.01 µM; maintenance of new blood vessels (tube maintenance) (HUVEC): effectively inhibited; inhibition at 0.05 µM (Panc-10.5): 18%

**Q.** Which results are given for `O=C(NC(=S)Nc1cccc(-c2nc3ccccc3[nH]2)c1)c1ccc2c(c1)OCCO2` [Compound 2, N-[3-(1H-benzimidazol-2-yl)phenyl]-N′-(2,3-dihydro-1,4-benzodioxin-6-ylcarbonyl)thiourea]?
**A.** IC50 (MDA-MB-436): 2.3 ± 0.03 µM; IC50 (MDA-MB-438): 0.5 ± 0.03 µM; inhibition at 0.1 µM (MDA-MB-438): 34%; inhibition at 0.5 µM (MDA-MB-438): 51%; inhibition at 1 µM (MDA-MB-438): 58%; IC50 (HeLa): 0.05 ± 0.04 µM; inhibition at 0.1 µM (HeLa): 62%; inhibition at 0.5 µM (HeLa): 64%; inhibition at 1 µM (HeLa): 67%; IC50 (LNCaP): 1.3 ± 0.15 µM; IC50 (KMS-II): 1.8 ± 0.02 µM; maintenance of new blood vessels (tube maintenance) (HUVEC): effectively inhibited; inhibition at 0.05 µM (Panc-10.5): 35%
